What was measured:
Settings in all cases: 48 h
SEM cells [1] = test: cell viability relative to DMSO control; higher = less cytotoxic
How it was run: (§1)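 Viability is expressed as a percentage of DMSO wells within each plate, and cell-free wells serve as background. Seeding densities in the 1536-well plates (5 μl) were 500 cells/well for NOMO1 or SEM leukemia cells and 1000 cells/well for P12-Ichikawa. Each line was adapted for at least four passages in each medium. Library compounds in DMSO were pin-dosed at 47 μM to 0.79 nM (11 points, threefold), and CellTiter-Glo One luminescence was read after 48 h at 37°C.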

P12-Ichikawa [2] = test: as above
How it was run: as §1

NOMO1 [3] = test: as above
How it was run: as §1

SEM cells [4] = test: AUC of viability dose-response curve (% viability x log10 dose units); higher = less sensitive
How it was run: (§2)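 In 1536-well plates, leukemia cells adapted to each medium (500 or 1000 cells/well) were exposed for 48 h at 37°C to library compounds in DMSO across 11 threefold doses, 47 μM down to 0.79 nM. Viability was read by CellTiter-Glo One luminescence and normalised per plate to DMSO and cell-free wells. A four-parameter log-logistic fit over log10 doses was integrated by trapezoidal rule. This yielded the area under the curve, with over-full-viability curves scaled and quality-control failures dropped.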

P12-Ichikawa [5] = test: as above
How it was run: as §2

NOMO1 [6] = test: as above
How it was run: as §2

NC/1=N/C(=O)C2=C([NH]C=C2CCC3=CC=C(C=C3)C(=O)N[C@@H](CCC(O)=O)C(O)=O)N1
cell viability [%]
Settings	NOMO1 [3]	P12-Ichikawa [2]	SEM cells [1]
HPLM + 10% dialyzed FBS, 0.000781 µM	107	106	118
HPLM + 10% dialyzed FBS, 0.00234 µM	99.2	109	103
HPLM + 10% dialyzed FBS, 0.00702 µM	110	106	107
HPLM + 10% dialyzed FBS, 0.0211 µM	104	107	115
HPLM + 10% dialyzed FBS, 0.0632 µM	107	99.8	114
HPLM + 10% dialyzed FBS, 0.19 µM	116	114	110
HPLM + 10% dialyzed FBS, 0.569 µM	78.2	105	80.2
HPLM + 10% dialyzed FBS, 1.71 µM	46.2	64.4	45.7
HPLM + 10% dialyzed FBS, 5.12 µM	41.8	35.4	39.4
HPLM + 10% dialyzed FBS, 15.4 µM	38.8	29.3	38.3
HPLM + 10% dialyzed FBS, 46.1 µM	29.7	28.2	35.8
RPMI 5 mM glucose + 10% FBS, 0.000781 µM	88	102	98.3
RPMI 5 mM glucose + 10% FBS, 0.00234 µM	92.2	113	105
RPMI 5 mM glucose + 10% FBS, 0.00702 µM	103	108	103
RPMI 5 mM glucose + 10% FBS, 0.0211 µM	94.2	107	107
RPMI 5 mM glucose + 10% FBS, 0.0632 µM	96.2	110	99.7
RPMI 5 mM glucose + 10% FBS, 0.19 µM	94.4	108	107
RPMI 5 mM glucose + 10% FBS, 0.569 µM	93.9	96.9	91.9
RPMI 5 mM glucose + 10% FBS, 1.71 µM	112	90	100
RPMI 5 mM glucose + 10% FBS, 5.12 µM	92.5	64.5	83.2
RPMI 5 mM glucose + 10% FBS, 15.4 µM	78.9	54.9	73.9
RPMI 5 mM glucose + 10% FBS, 46.1 µM	75.5	47.5	69.8
RPMI 5 mM glucose + 10% dialyzed FBS, 0.000781 µM	104	96.5	98.8
RPMI 5 mM glucose + 10% dialyzed FBS, 0.00234 µM	91.4	106	95
RPMI 5 mM glucose + 10% dialyzed FBS, 0.00702 µM	96	103	100
RPMI 5 mM glucose + 10% dialyzed FBS, 0.0211 µM	105	103	97.3
RPMI 5 mM glucose + 10% dialyzed FBS, 0.0632 µM	103	104	97
RPMI 5 mM glucose + 10% dialyzed FBS, 0.19 µM	104	104	107
RPMI 5 mM glucose + 10% dialyzed FBS, 0.569 µM	103	99.1	109
RPMI 5 mM glucose + 10% dialyzed FBS, 1.71 µM	86	88.4	52.2
RPMI 5 mM glucose + 10% dialyzed FBS, 5.12 µM	40.5	56.1	36.2
RPMI 5 mM glucose + 10% dialyzed FBS, 15.4 µM	40.1	48.1	32.3
RPMI 5 mM glucose + 10% dialyzed FBS, 46.1 µM	38.3	44.4	23.3

AUC of viability dose-response curve
Settings	NOMO1 [6]	P12-Ichikawa [5]	SEM cells [4]
HPLM + 10% dialyzed FBS	358	372	355
RPMI 5 mM glucose + 10% FBS	446	408	444
RPMI 5 mM glucose + 10% dialyzed FBS	398	409	371

COCCNCCCn1c(C(=O)CF)c(-c2ccc(C)cc2)c2c(N)ncnc21
cell viability [%]
Settings	NOMO1 [3]	P12-Ichikawa [2]	SEM cells [1]
HPLM + 10% dialyzed FBS, 0.000781 µM	94.7	108	109
HPLM + 10% dialyzed FBS, 0.00234 µM	120	95.8	113
HPLM + 10% dialyzed FBS, 0.00702 µM	98.5	104	105
HPLM + 10% dialyzed FBS, 0.0211 µM	88.7	102	101
HPLM + 10% dialyzed FBS, 0.0632 µM	117	111	101
HPLM + 10% dialyzed FBS, 0.19 µM	107	103	105
HPLM + 10% dialyzed FBS, 0.569 µM	108	102	107
HPLM + 10% dialyzed FBS, 1.71 µM	98	95.1	99.7
HPLM + 10% dialyzed FBS, 5.12 µM	105	85.3	87
HPLM + 10% dialyzed FBS, 15.4 µM	105	94.5	71.7
HPLM + 10% dialyzed FBS, 46.1 µM	93.9	87.2	56.4
RPMI 5 mM glucose + 10% FBS, 0.000781 µM	103	118	–
RPMI 5 mM glucose + 10% FBS, 0.00234 µM	88	100	–
RPMI 5 mM glucose + 10% FBS, 0.00702 µM	88.5	108	–
RPMI 5 mM glucose + 10% FBS, 0.0211 µM	93.1	103	–
RPMI 5 mM glucose + 10% FBS, 0.0632 µM	98	107	–
RPMI 5 mM glucose + 10% FBS, 0.19 µM	93.5	104	–
RPMI 5 mM glucose + 10% FBS, 0.569 µM	88.5	101	–
RPMI 5 mM glucose + 10% FBS, 1.71 µM	88.7	103	–
RPMI 5 mM glucose + 10% FBS, 5.12 µM	88.5	104	–
RPMI 5 mM glucose + 10% FBS, 15.4 µM	97.4	96.7	–
RPMI 5 mM glucose + 10% FBS, 46.1 µM	107	91.7	–
RPMI 5 mM glucose + 10% dialyzed FBS, 0.000781 µM	96.8	103	106
RPMI 5 mM glucose + 10% dialyzed FBS, 0.00234 µM	101	96.7	102
RPMI 5 mM glucose + 10% dialyzed FBS, 0.00702 µM	105	116	111
RPMI 5 mM glucose + 10% dialyzed FBS, 0.0211 µM	99.4	98	104
RPMI 5 mM glucose + 10% dialyzed FBS, 0.0632 µM	93.3	106	114
RPMI 5 mM glucose + 10% dialyzed FBS, 0.19 µM	86.9	101	103
RPMI 5 mM glucose + 10% dialyzed FBS, 0.569 µM	99.4	105	96.7
RPMI 5 mM glucose + 10% dialyzed FBS, 1.71 µM	95.6	89.8	68.2
RPMI 5 mM glucose + 10% dialyzed FBS, 5.12 µM	83.7	94.7	72.5
RPMI 5 mM glucose + 10% dialyzed FBS, 15.4 µM	93	83.7	71.9
RPMI 5 mM glucose + 10% dialyzed FBS, 46.1 µM	101	72.2	54.5

AUC of viability dose-response curve
Settings	NOMO1 [6]	P12-Ichikawa [5]	SEM cells [4]
HPLM + 10% dialyzed FBS	470	456	438
RPMI 5 mM glucose + 10% FBS	417	445	367
RPMI 5 mM glucose + 10% dialyzed FBS	453	448	410
